Measurements published in paper PMC6450699 (Archives of biochemistry and biophysics, 2018).

Biological target: human cytochrome P450 3A4 (CYP3A4) (Homo sapiens, UniProt P08684, C58T/C64A/C98S/F215C/C239S/C468G)
Experiment: purified enzyme with CPR: fluorescent HFC production and NADPH consumption
Type: biochemical

human cytochrome P450 3A4 (CYP3A4), sequence (P08684 13-503 C58T/C64A/C98S/F215C/C239S/C468G): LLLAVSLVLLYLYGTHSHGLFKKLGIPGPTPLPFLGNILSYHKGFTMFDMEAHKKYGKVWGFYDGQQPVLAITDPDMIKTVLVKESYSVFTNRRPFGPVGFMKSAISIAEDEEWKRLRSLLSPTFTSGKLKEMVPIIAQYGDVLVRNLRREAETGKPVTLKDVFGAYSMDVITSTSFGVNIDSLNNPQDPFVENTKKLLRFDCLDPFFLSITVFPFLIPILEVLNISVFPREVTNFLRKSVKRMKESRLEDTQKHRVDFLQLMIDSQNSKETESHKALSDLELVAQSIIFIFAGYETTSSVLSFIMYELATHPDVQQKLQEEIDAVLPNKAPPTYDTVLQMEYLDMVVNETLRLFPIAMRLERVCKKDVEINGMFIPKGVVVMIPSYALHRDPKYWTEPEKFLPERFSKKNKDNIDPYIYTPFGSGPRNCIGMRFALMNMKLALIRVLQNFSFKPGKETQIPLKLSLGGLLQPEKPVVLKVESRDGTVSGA

HFC produced^b: 0.0044 ± 0.0008 μmol/min/μmol enzyme
Structure (SMILES): O=c1cc(C(F)(F)F)c2ccc(OCc3ccccc3)cc2o1 [BFC, 7-benzyloxy-4-trifluoromethylcoumarin]
